# Measured values published in patent publication US20250387382A1, “METHODS OF TREATING ESSENTIAL TREMOR” (Praxis Precision Medicines, Inc., priority 2023, published 2025).
# Entries after “also recorded” stand apart in the source; their conditions may differ.
# Key:
# [1] = test system: participants with moderate to severe ET; assay: Phase 2 trial, randomized double-blind placebo-controlled part: efficacy (TETRAS mADL, ADL, mADL11, PGI-C, CGI-S); assay type: in vivo, human
# Excerpt: Severity of ET in this study was defined by eligibility criteria on TETRAS-ADL, CGI-S, and TETRAS-PS items 6 and 7. This dose range finding trial is comprised of three parts. The first part was randomized, double-blinded (DB), and placebo-controlled, the second part was an optional extension that consisted of an Extension DB Lead-in Period followed by an Extension Open-label (OL) Period. Further, there was also a third part available for completers of the Day 99 visit, which third part was comprised of a blinded cross-over period (referred to as cross-over period) after re-randomization for 6 weeks, after which all completers would receive formula (I) in an open-label fashion. […] The primary objective of this trial was to evaluate the efficacy of Compound 1 compared to placebo after 56 days (end of randomized, DB, placebo-controlled part) of dosing in participants with ET with moderate to severe tremor utilizing modified ADL as the primary efficacy endpoint. Secondary and exploratory objectives include further efficacy evaluations, an evaluation of the safety and tolerability, and determination of plasma concentrations of formula (I) and its metabolites. The design of the Phase 2 trial is illustrated in FIG. 1.
# Participants who continued to meet all clinical trial entry criteria on Day 1 were randomized to receive DB treatment with Compound 1 or placebo every morning (QAM) from Day 1 through Day 56. Participants were randomized to 1 of 2 fixed-dose regimens or placebo in a 1:1:1 ratio. No dosage adjustments were allowed.
# On Days 14, 28, 42, and 56, participants returned to the clinic for PK sampling, dosing, efficacy, and safety assessments. Key efficacy assessments at these visits included TETRAS-PS, TETRAS ADL, CGI-S, CGI-I, and PGI C.
# Fixed titration regimens were used (Table 1). Participants were not allowed to adjust the number of tablets per day.
# Selected items from the TETRAS-ADL and TETRAS-PS (or TETRAS-CUL, as appropriate) were scored in a modified manner and combined to create a TETRAS modified total score. Items 1-11 in the TETRAS ADL subscale and items 6 and 7 of the TETRAS-PS were used, with scoring adjusted so that response options 0 and 1 were combined into a single response of “0=Normal.” Further, scores of 2, 3, and 4 were adjusted to 1, 2, and 3, respectively. The TETRAS modified total score were the sum of these adjusted TETRAS-ADL and TETRAS PS items, having a possible range of 0 to 42, where larger values represent increased direct tremor impact to activities of daily living. The items that are included in the TETRAS-modified total score are illustrated in FIG. 2.
# The primary efficacy measure in this clinical trial was change from baseline in mADL at day 56. Ulixacaltamide effect on individual mADL items was determined by calculating the fold-change adjusted by placebo change at Day 56 in mADL for individual mADL items. The secondary efficacy measures included change in Clinical Global Impression-Severity (CGI-S) score, Patient Global Impression-Change (PGI-C) score, TETRAS-ADL total score, TETRAS-UL score, TETRAS-CUL score and TETRAS-PS score.
# patients with ET = assay: Randomized withdrawal sub-study / blinded 6-week crossover period of the Phase 2 extension; assay type: in vivo, human
# Excerpt: At the re-randomization visit for the cross-over period, and every 7 days in that portion of the study, the treatment regimen was assigned by the IRT and dispensed by site pharmacist for direct-to-patient (DTP) shipping. In the cross-over period of the trial, all participants were centrally assigned to randomize to remain on the current regimen of Compound 1 or placebo using an IRT. After 3 weeks, participants receiving placebo were switched over to Compound 1 following the regimen described in Table 3. The IRT assigned treatment regimen based on the Tetras ADL response criteria after day 7.
# The open-label protocol was amended to further assess the criteria to be used in the upcoming randomized withdrawal study in Phase 3 (as described in Example 3). In this sub-study, patients were re-randomized in a blinded-fashion to either receive placebo or continue to receive Compound 1. Twenty-one patients who completed assessments at week 14 of the Open Label Extension were eligible to participate in the blinded sub-study.
# Patients were evaluated weekly over a total of 6 weeks, with 11 patients assigned to Compound 1 and 10 patients assigned to placebo for the initial 3-week period, crossing over to either placebo or Compound 1 for an additional 3-week period. Blinded rescue was triggered for patients on placebo if loss in the mADL11 exceeded 2 points at any timepoint.
# The results of the Phase 2 trials with ulixacaltamie (see Examples 1 and 2) support the efficacy and safety of ulixacaltamide in patients with ET. […] In the double-blind (DB) portion of the Phase 2 study, the rescored TETRAS-ADL items 1-11 (mADL11) score decreased more in participants randomized to Compound 1 compared with placebo after 56 days of dosing, with least square mean (LSM standard error [SE]) scores of ([…] [0.81]) compared with placebo (−0.87 [0.95]). The LSM (95% confidence interval [CI]) treatment difference was −1.82 (95% CI: −3.565, −0.066; with a nominal p value of <0.05). In the Phase 2 extension period, 20 participants completed a blinded 6-week crossover period. Participants were randomized in blinded fashion to either 3 weeks of Compound 1 60 mg or placebo. Rescue treatment (Compound 1) was offered to participants if their mADL11 worsened by a preset threshold. […] None of the Compound 1-treated participants and 9 of 21 placebo-treated participants qualified for and received rescue treatment within the 3-week period.
# [2] = patients who switched from Compound 1 to placebo
smiles,measurement,setting,value
"CC(C)(C)NC(=O)CN1CCC(CNC(=O)c2cc(F)cc(Cl)c2)CC1 [Compound 1, N-((1-(2-(tert-butylamino)-2-oxoethyl)piperidin-4-yl)methyl)-3-chloro-5-fluorobenzamide]",mADL11 treatment effect relative to placebo,"[1]; Day 14, participants without intention tremor",1.03 points
same,"LSM mADL11 change from baseline, treatment effect relative to placebo",[1]; Day 28,1.44
same,"TETRAS PS items (dominant hand handwriting, left and right hand spirals), improvement vs placebo",[1]; Day 56,less improvement than those receiving placebo
same,mADL11 LSM treatment difference vs placebo,"[1]; after 56 days, 95% CI −3.565, −0.066, nominal p <0.05",−1.82
same,mADL and mADL11 scores vs. placebo at each scored timepoint,"[1]; after day 14, FIG. 15",improvement
same,"Magnitude of benefit on mADL11 vs placebo, 60 mg vs 100 mg groups",[1]; change from baseline versus placebo,largely similar
same,Modified ADL (mADL) scores in the Phase 2 trials,[1]; daily doses ranging from 20 to 120 mg for up to 56 days,reduced modified ADL (mADL) scores
same,"mADL scores, patients showing improvement vs placebo","[1]; day 56, FIG. 9",more patients taking ulixacaltamide showed improvements
same,"ADL score, average reduction compared to baseline","[1]; day 56, n=78",3.6 points
same,ADL scored items with consistent effect relative to placebo,"[1]; individual items, Day 56",8 of 11
same,Patients improved on CGI-S scale,[1]; mITT,42%
same,Patients improved on PGI-C scale,[1]; mITT,47%
same,mADL-scored items vs baseline in ET patients who do not have intention tremor,"[1]; mITT excluding intention tremor, FIGS. 18 and 19",larger improvement
same,"Placebo-adjusted mADL excluding PS, 60 mg vs 100 mg regimens","[1]; mITT patients without intention tremor, FIG. 20",consistent effect observed across both tested dosing regimens
same,mADL LS mean difference vs. placebo,"[1]; mITT, Day 56, p=0.126",1.57
same,"Modified ADL score, mean decrease","[1]; n=78, placebo 0.88 points",2.69 points
same,Patients achieving at least a 3-point improvement in mADL11,"[1]; patients on propranolol and ulixacaltamide, 25% for propranolol and placebo",48%
same,"mADL excluding PS items, LS mean difference vs. placebo","[1]; post hoc, Day 56, mITT, p=0.042",1.81
same,Treated participants with at least a 2 point improvement in total score,"[1]; post-hoc responder analysis, 0.5 SD threshold, mITT",greater than 50%
same,Treated subjects with at least a 4 point improvement in total score,"[1]; post-hoc responder analysis, 1 SD threshold, mITT",roughly 40%
same,Response rates vs placebo for mADL and mADL excluding PS items,"[1]; post-hoc responder analysis, MCID distribution method, mITT",greater response rates
same,"Change in TETRAS-ADL, LS mean difference vs. placebo","[1]; secondary endpoint, p=0.026",2.53
same,Patients who maintained their mADL11 within 3-points compared to baseline,patients with ET; 52% on placebo,85%
same,Participants with maintenance of response,"patients with ET; crossover period, Compound 1 60 mg, 11 of 21 on placebo",17 of 20
same,Safety signals,patients with ET; in vivo,No new safety signals emerged; also recorded: No new safety signal was identified
same,Average loss of effect in mADL11 per week,patients with ET; [2],47%
same,Mean loss of effect in mADL11,patients with ET; [2],−1.15 points/week
same,Improvement in global mean change in mADL11 per week,patients with ET; periods receiving Compound 1,6%
same,Mean improvement in mADL11,patients with ET; periods receiving Compound 1,0.16 points/week
same,Participants who qualified for and received rescue treatment,"patients with ET; within the 3-week period, 9 of 21 on placebo",None
